# Data: patent US20110160196A1, “FACTOR XA INHIBITORS” (Millennium Pharmaceuticals, Inc., priority 2007, published 2011)
# Molecular target: T1, human plasma protein factor Xa (Homo sapiens, UniProt P00742)
# T1 construct: The human plasma protein factor Xa was purchased; purchased Haematologic Technologies (Essex Junction, Vt.); host or cells: human plasma
# Assay: Factor Xa IC50 determination (cleavage of paranitroanilide substrate S-2765)
# Type: biochemical
# Details: factor Xa 1 nM, S-2765 100 μM, Tris buffered saline pH 7.4, read at 405 nm
# Excerpt: This example illustrates methods for evaluating the compounds of the invention, along with results obtained for such assays. The in vitro and in vivo human Factor Xa activities of the inventive compounds can be determined by various procedures known in the art, such as a test for their ability to inhibit the activity of human plasma Factor Xa. […] The IC50 value is the concentration (in nM) of the compound required to provide 50% inhibition of human Factor Xa proteolytic activity.
# An in vitro assay for detecting and measuring inhibition activity against Factor Xa is as follows:
# The substrate S-2765 (Z-D-Arg-Gly-Arg-pNA.HCl) was obtained from Diapharma (West Chester, Ohio).
# The human plasma protein factor Xa was purchased from Haematologic Technologies (Essex Junction, Vt.).
# All assays, which are performed in 96-well microtiter plates, measure proteolytic activity of the enzyme (factor Xa) by following cleavage of a paranitroanilide peptide substrate. The assay buffer used for proteolytic assays was Tris buffered saline (20 mM Tris, 150 mM NaCl, 5 mM CaCl2, 0.1% Bovine serum albumin (BSA), 5% Dimethly Sulfoxide (DMSO) pH 7.4). In a 96-well microtiter plate, inhibitor was serially diluted to give a range of final concentrations from 0.01 nM to 10 μM. Duplicate sets of wells were assayed and control wells without inhibitor were included. Enzyme was added to each well, (factor Xa concentration=1 nM), the plate was shaken for 5 seconds and then incubated for 5 minutes at room temperature. S-2765 was added (100 μM final) and the plate was shaken for 5 seconds (final volume in each well was 200 μl). The degree of substrate hydrolysis was measured at 405 nm on a Thermomax plate reader (Molecular Devices, Sunnyvale, Calif.) for 2 minutes. The initial velocities of substrate cleavage (mOD/min), for each range of inhibitor concentrations, were fitted to a four parameter equation using Softmax data analysis software. The parameter C, derived from the resulting curve-fit, corresponded to the concentration for half maximal inhibition (IC50).
# T1 sequence (P00742 235-488 limits assumed): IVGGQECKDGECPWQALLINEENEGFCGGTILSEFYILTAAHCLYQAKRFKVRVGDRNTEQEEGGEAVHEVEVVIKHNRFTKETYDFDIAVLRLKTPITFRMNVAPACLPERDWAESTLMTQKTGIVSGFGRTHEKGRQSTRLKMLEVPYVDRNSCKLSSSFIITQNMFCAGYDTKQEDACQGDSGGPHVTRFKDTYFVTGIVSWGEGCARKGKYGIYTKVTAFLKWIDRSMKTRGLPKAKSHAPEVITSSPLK
# T1 sequence (P00742 41-179 partner limits assumed): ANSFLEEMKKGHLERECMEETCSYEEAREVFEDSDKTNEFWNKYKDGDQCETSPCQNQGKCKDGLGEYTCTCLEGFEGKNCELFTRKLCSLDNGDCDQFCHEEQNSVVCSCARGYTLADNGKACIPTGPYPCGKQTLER
row,IC50 [nM],Compound
1,100 to 500,"O=C(NCc1nnn(-c2ccc(-n3ccccc3=O)cc2OCCCO)c1I)c1ccc(Cl)s1 [Compound 153, 5-Chloro-N-((1-(2-(3-hydroxypropoxy)-4-(2-oxopyridin-1(2H)-yl)phenyl)-5-iodo-1H-1,2,3-triazol-4-yl)methyl)thiophene-2-carboxamide]"
2,≤ 100,"CS(=O)(=O)CCCOc1cc(-n2ccccc2=O)ccc1-n1cc(CNC(=O)c2ccc(Cl)s2)nn1 [Compound 83, 5-Chloro-N-((1-(2-(3-(methylsulfonyl)propoxy)-4-(2-oxopyridin-1(2H)-yl)phenyl)-1H-1,2,3-triazol-4-yl)methyl)thiophene-2-carboxamide]"
3,100 to 500,"O=C(NCc1nnn(-c2ccc(-n3ccccc3=O)cc2OC[C@H](O)CO)c1I)c1ccc(Cl)s1 [Compound 154, 5-Chloro-N-((1-(2-((R)-2,3-dihydroxypropoxy)-4-(2-oxopyridin-1(2H)-yl)phenyl)-5-iodo-1H-1,2,3-triazol-4-yl)methyl)thiophene-2-carboxamide]"
4,≤ 100,"O=C(NCc1cn(-c2ccc(-n3ccccc3=O)cc2-n2ccnc2)nn1)c1ccc(Cl)s1 [Compound 42, N-((1-(2-(1H-Imidazol-1-yl)-4-(2-oxopyridin-1(2H)-yl)phenyl)-1H-1,2,3-triazol-4-yl)methyl)-5-chlorothiophene-2-carboxamide]"
5,100 to 500,"NC(=O)CCNC(=O)c1cc(-n2ccccc2=O)ccc1-n1cc(CNC(=O)c2ccc(Cl)s2)nn1 [Compound 147, N-((1-(2-(3-Amino-3-oxopropylcarbamoyl)-4-(2-oxopyridin-1(2H)-yl)phenyl)-1H-1,2,3-triazol-4-yl)methyl)-5-chlorothiophene-2-carboxamide]"
6,≤ 100,"CN(C)CCCOc1cc(-n2ccccc2=O)ccc1-n1cc(CNC(=O)c2ccc(Cl)s2)nn1 [Compound 92, 5-Chloro-N-((1-(2-(3-(dimethylamino)propoxy)-4-(2-oxopyridin-1(2H)-yl)phenyl)-1H-1,2,3-triazol-4-yl)methyl)thiophene-2-carboxamide]"
7,≤ 100,"O=C(NCc1cn(-c2ccc(-n3ccccc3=O)cc2OCCCOC(=O)N2CCOCC2)nn1)c1ccc(Cl)s1 [Compound 150, 3-(2-(4-((5-Chlorothiophene-2-carboxamido)methyl)-1H-1,2,3-triazol-1-yl)-5-(2-oxopyridin-1(2H)-yl)phenoxy)propyl morpholine-4-carboxylate]"
8,100 to 500,"O=C(NCc1cn(-c2ccc(-n3ccccc3=O)cc2C(=O)N2CCNCC2)nn1)c1ccc(Cl)s1 [Compound 113, 5-Chloro-N-((1-(4-(2-oxopyridin-1(2H)-yl)-2-(piperazine-1-carbonyl)phenyl)-1H-1,2,3-triazol-4-yl)methyl)thiophene-2-carboxamide]"
9,≤ 100,"O=C(NCc1cn(-c2ccc(-n3ccccc3=O)cc2OC2CCNCC2)nn1)c1ccc(Cl)s1 [Compound 57, 5-Chloro-N-((1-(4-(2-oxopyridin-1(2H)-yl)-2-(piperidin-4-yloxy)phenyl)-1H-1,2,3-triazol-4-yl)methyl)thiophene-2-carboxamide]"
10,≤ 100,"CC(=N)N1CCN(c2cc(-n3ccccc3=O)ccc2-n2cc(CNC(=O)c3ccc(Cl)s3)nn2)CC1 [Compound 14, 5-Chloro-N-((1-(2-(4-(1-iminoethyl)piperazin-1-yl)-4-(2-oxopyridin-1(2H)-yl)phenyl)-1H-1,2,3-triazol-4-yl)methyl)thiophene-2-carboxamide]"
11,≤ 100,"COc1ccc(-c2cc(-n3ccccc3=O)ccc2-n2cc(CNC(=O)c3ccc(Cl)s3)nn2)cn1 [Compound 143, 5-Chloro-N-((1-(2-(6-methoxypyridin-3-yl)-4-(2-oxopyridin-1(2H)-yl)phenyl)-1H-1,2,3-triazol-4-yl)methyl)thiophene-2-carboxamide]"
12,≤ 100,"O=C(NCc1cn(-c2ccc(-n3ccccc3=O)cc2N2CCCC2=O)nn1)c1ccc(Cl)s1 [Compound 43, 5-Chloro-N-((1-(4-(2-oxopyridin-1(2H)-yl)-2-(2-oxopyrrolidin-1-yl)phenyl)-1H-1,2,3-triazol-4-yl)methyl)thiophene-2-carboxamide]"
13,≤ 100,"CNC(=O)c1cc(-n2ccccc2=O)ccc1-n1cc(CNC(=O)c2ccc(Cl)s2)nn1 [Compound 102, 5-Chloro-N-((1-(2-(methylcarbamoyl)-4-(2-oxopyridin-1(2H)-yl)phenyl)-1H-1,2,3-triazol-4-yl)methyl)thiophenc-2-carboxamide]"
14,≤ 100,"O=C(NCc1cn(-c2ccc(-n3ccccc3=O)cc2OCc2nccn2Cc2ncc[nH]2)nn1)c1ccc(Cl)s1 [Compound 178, N-((1-(2-((1-((1H-imidazol-2-yl)methyl)-1H-imidazol-2-yl)methoxy)-4-(2-oxopyridin-1(2H)-yl)phenyl)-1H-1,2,3-triazol-4-yl)methyl)-5-chlorothiophene-2-carboxamide]"
15,100 to 500,"NCCCNC(=O)c1cc(-n2ccccc2=O)ccc1-n1cc(CNC(=O)c2ccc(Cl)s2)nn1 [Compound 112, N-((1-(2-(3-aminopropylcarbamoyl)-4-(2-oxopyridin-1(2H)-yl)phenyl)-1H-1,2,3-triazol-4-yl)methyl)-5-chlorothiophene-2-carboxamide]"
16,≤ 100,"CCOc1cc(-n2ccccc2=O)ccc1-n1cc(CNC(=O)c2ccc(Cl)s2)nn1 [Compound 164, 5-Chloro-N-((1-(2-ethoxy-4-(2-oxopyridin-1(2H)-yl)phenyl)-1H-1,2,3-triazol-4-yl)methyl)thiophene-2-carboxamide]"
17,≤ 100,"O=C(NCc1cn(-c2ccc(-n3ccccc3=O)cc2N2CCC[C@H](O)C2)nn1)c1ccc(Cl)s1 [Compound 23, 5-Chloro-N-((1-(2-((S)-3-hydroxypiperidin-1-yl)-4-(2-oxopyridin-1(2H)-yl)phenyl)-1H-1,2,3-triazol-4-yl)methyl)thiophene-2-carboxamide]"
18,≤ 100,"O=C(NCc1cn(-c2ccc(-n3ccccc3=O)cc2OC[C@H](O)CO)nn1)c1ccc(Cl)s1 [Compound 78, 5-Chloro-N-((1-(2-((R)-2,3-dihydroxypropoxy)-4-(2-oxopyridin-1(2H)-yl)phenyl)-1H-1,2,3-triazol-4-yl)methyl)thiophene-2-carboxamide]"
19,≤ 100,"CC(=O)NC1CCN(c2cc(-n3ccccc3=O)ccc2-n2cc(CNC(=O)c3ccc(Cl)s3)nn2)CC1 [Compound 18, N-((1-(2-(4-Acetamidopiperidin-1-yl)-4-(2-oxopyridin-1(2H)-yl)phenyl)-1H-1,2,3-triazol-4-yl)methyl)-5-chlorothiophene-2-carboxamide]"
20,≤ 100,CN(C)CCOc1cc(-n2ccccc2=O)ccc1-n1cc(CNC(=O)c2ccc(Cl)s2)nn1 [Compound 85]
21,≤ 100,"CN(C)c1cc(-n2ccccc2=O)ccc1-n1cc(CNC(=O)c2ccc(Cl)s2)nn1 [Compound 2, 5-Chloro-N-((1-(2-(dimethylamino)-4-(2-oxopyridin-1(2H)-yl)phenyl)-1H-1,2,3-triazol-4-yl)methyl)thiophene-2-carboxamide]"
22,≤ 100,"Cc1cc(COc2cc(-n3ccccc3=O)ccc2-n2cc(CNC(=O)c3ccc(Cl)s3)nn2)no1 [Compound 179, 5-Chloro-N-((1-(2-((5-methylisoxazol-3-yl)methoxy)-4-(2-oxopyridin-1(2H)-yl)phenyl)-1H-1,2,3-triazol-4-yl)methyl)thiophene-2-carboxamide]"
23,≤ 100,"C[S+]([O-])c1cc(-n2ccccc2=O)ccc1-n1cc(CNC(=O)c2ccc(Cl)s2)nn1 (stereo not drawn) [Compound 51, 5-Chloro-N-((1-(2-(methylsulfoxy)-4-(2-oxopyridin-1(2H)-yl)phenyl)-1H-1,2,3-triazol-4-yl)methyl)thiophene-2-carboxamide]"
24,100 to 500,"O=C(O)COc1cc(-n2ccccc2=O)ccc1-n1cc(CNC(=O)c2ccc(Cl)s2)nn1 [Compound 96, 2-(2-(4-((2-Chlorothiophene-5-carboxamido)methyl)-1H-1,2,3-triazol-1-yl)-5-(2-oxopyridin-1(2H)-yl)phenoxy)acetic acid]"
25,≤ 100,"O=C(NCc1cn(-c2ccc(-n3ccccc3=O)cc2OCc2cccnc2)nn1)c1ccc(Cl)s1 [Compound 165, 5-Chloro-N-((1-(4-(2-oxopyridin-1(2H)-yl)-2-(pyridin-3-ylmethoxy)phenyl)-1H-1,2,3-triazol-4-yl)methyl)thiophene-2-carboxamide]"
26,≤ 100,"O=C(NCc1cn(-c2ccc(-n3ccccc3=O)cc2OCCn2cccn2)nn1)c1ccc(Cl)s1 [Compound 156, N-((1-(2-(2-(1H-Pyrazol-1-yl)ethoxy)-4-(2-oxopyridin-1(2H)-yl)phenyl)-1H-1,2,3-triazol-4-yl)methyl)-5-chlorothiophene-2-carboxamide]"
27,≤ 100,"CN(C)CCNC(=O)c1cc(-n2ccccc2=O)ccc1-n1cc(CNC(=O)c2ccc(Cl)s2)nn1 [Compound 109, N-((1-(2-((2-(Dimethylamino)ethyl)carbamoyl)-4-(2-oxopyridin-1(2H)-yl)phenyl)-1H-1,2,3-triazol-4-yl)methyl)-5-chlorothiophene-2-carboxamide]"
